{"source": "paper PMC7044277", "about": "(Nature Communications, 2020)", "assay_type_in_all_cases": "cell-based", "key": {"320 non-olfactory GPCRs [1]": {"biological_target": "T1, 320 non-olfactory GPCRs (Homo sapiens, UniProt P48146)", "T1 construct": "expressed in transfected cells; host or cells: HTLA cells", "T1 sequence (P48146 whole entry)": "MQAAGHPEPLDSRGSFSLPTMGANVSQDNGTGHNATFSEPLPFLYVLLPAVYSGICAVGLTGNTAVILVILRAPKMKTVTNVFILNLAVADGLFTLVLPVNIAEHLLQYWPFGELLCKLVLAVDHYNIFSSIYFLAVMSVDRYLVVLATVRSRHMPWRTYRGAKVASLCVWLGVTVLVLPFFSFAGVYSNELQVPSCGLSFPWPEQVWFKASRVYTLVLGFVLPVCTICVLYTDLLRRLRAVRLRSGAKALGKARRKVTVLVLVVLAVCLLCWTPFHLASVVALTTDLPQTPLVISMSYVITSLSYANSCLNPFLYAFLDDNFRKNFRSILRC", "conditions": "receptor NPBW2; replicate values, Fig_4g"}, "320 non-olfactory GPCRs [2]": {"biological_target": "T2, 320 non-olfactory GPCRs (Homo sapiens, UniProt P48039)", "T2 construct": "expressed in transfected cells; host or cells: HTLA cells", "T2 sequence (P48039 whole entry)": "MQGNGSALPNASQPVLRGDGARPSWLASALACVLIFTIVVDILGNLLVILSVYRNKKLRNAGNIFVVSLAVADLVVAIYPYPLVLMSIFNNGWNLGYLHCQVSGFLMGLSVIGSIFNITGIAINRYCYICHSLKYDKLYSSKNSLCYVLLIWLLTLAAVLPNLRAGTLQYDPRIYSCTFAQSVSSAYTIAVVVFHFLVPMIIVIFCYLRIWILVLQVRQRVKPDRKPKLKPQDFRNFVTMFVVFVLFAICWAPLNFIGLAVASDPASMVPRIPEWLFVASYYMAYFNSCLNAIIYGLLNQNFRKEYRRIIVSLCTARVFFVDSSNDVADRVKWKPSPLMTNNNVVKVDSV", "conditions": "receptor MTNR1A; replicate values, Fig_4g"}, "320 non-olfactory GPCRs [3]": {"biological_target": "T3, 320 non-olfactory GPCRs (Homo sapiens, UniProt P04201)", "T3 construct": "expressed in transfected cells; host or cells: HTLA cells", "T3 sequence (P04201 whole entry)": "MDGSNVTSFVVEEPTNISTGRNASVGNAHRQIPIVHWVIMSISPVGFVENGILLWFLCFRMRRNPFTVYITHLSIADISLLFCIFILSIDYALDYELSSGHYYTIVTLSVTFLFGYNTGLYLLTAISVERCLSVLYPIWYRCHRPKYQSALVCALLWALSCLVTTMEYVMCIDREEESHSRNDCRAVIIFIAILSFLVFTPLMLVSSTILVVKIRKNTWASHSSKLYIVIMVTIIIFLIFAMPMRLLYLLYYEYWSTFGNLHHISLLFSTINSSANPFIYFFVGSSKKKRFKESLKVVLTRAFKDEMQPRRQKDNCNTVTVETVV", "conditions": "receptor MAS1; replicate values, Fig_4g"}, "320 non-olfactory GPCRs [4]": {"biological_target": "T4, 320 non-olfactory GPCRs (Homo sapiens, UniProt P48145)", "T4 construct": "expressed in transfected cells; host or cells: HTLA cells", "T4 sequence (P48145 whole entry)": "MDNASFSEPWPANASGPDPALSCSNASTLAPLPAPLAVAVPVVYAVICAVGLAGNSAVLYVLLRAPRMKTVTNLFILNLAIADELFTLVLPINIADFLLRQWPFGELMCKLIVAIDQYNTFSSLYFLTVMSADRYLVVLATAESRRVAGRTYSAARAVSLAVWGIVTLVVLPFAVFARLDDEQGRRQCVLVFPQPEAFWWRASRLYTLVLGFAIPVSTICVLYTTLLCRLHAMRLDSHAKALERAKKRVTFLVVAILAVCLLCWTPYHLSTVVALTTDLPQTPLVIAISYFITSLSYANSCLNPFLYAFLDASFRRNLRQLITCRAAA", "conditions": "receptor NPBW1; replicate values, Fig_4g"}}, "note": "“And” between values parts separate entries of the source, which are not always exact repeats. Equal values may be shown once.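 Further: fold over basal response of each receptor without drug.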"}
{"smiles": "CCOc1cccc2cc(C(C)NCC3(O)CCCCC3)oc12", "note": "(stereo not shown) [O4LE6]", "values": [{"measurement": "GPCRome agonism screen response", "setting": "320 non-olfactory GPCRs [1]", "value": "0.5262 and 0.8272 and 1.363 and 1.562"}, {"measurement": "GPCRome agonism screen response", "setting": "320 non-olfactory GPCRs [2]", "value": "2.743 and 4.229 and 2.242 and 2.817"}, {"measurement": "GPCRome agonism screen response", "setting": "320 non-olfactory GPCRs [3]", "value": "0.7017 and 0.6641 and 0.72"}, {"measurement": "GPCRome agonism screen response", "setting": "320 non-olfactory GPCRs [4]", "value": "1.094 and 1.2601 and 1.077 and 0.8815"}]}
